According to US12251366B1, “Sulforaphane-cysteine for wound healing in diabetic subjects” (KUWAIT UNIVERSITY, priority 2024, dated 2025):

How the values were obtained:
[1] = test system: TNF-α; assay: Real-time PCR, LPS-induced TNF-α mRNA in peritoneal macrophages; assay type: cell-based, mouse; conditions: LPS 100 ng/mL, 1.5 umol/L, RT-PCR
Protocol: (§1) Additional tests were conducted to determine whether SFN-Cys also suppresses TNF-α and IL-6 expression at the mRNA level.
(§2) Thioglycollate-elicited mouse peritoneal macrophages were prepared from C57BL (8-10 weeks old) and cultured in RPMI 1640 with 10% (v/v) FCS Bone marrow-derived macrophages were generated in RPMI medium containing M-CSF (10 ng/mL) according to previously published procedure. For cytokine ELISA assay, cells were seeded at 5×10^5 in 12-well plates, whereas for mRNA expression, the cells were seeded at […]. LPS and used at a dose of 100 ng/mL. Similarly. SFN-Cys was used at a concentration of 1.5 umol/L.
(§3) Total RNA from cells or frozen sponge implants was extracted using the Trizol reagent (Invitrogen), and the RNA integrity was verified by agarose gel electrophoresis. Approximately 1 μg of RNA was reverse transcribed (Superscript II Reverse Transcriptase Kit, Invitrogen) and amplified using the TaqMan Assay on Demand (Applied Biosystems) in a 25 μL reaction volume containing two unlabeled primers, a 6-carboxyfluorescien-labeled TaqMan MGB probe and the master mix. The amplified sequences were assessed using the ABI 7500 Prism Sequence Detection system machine. The results were expressed as mRNA levels normalized to 18S or GAPDH in each sample.

[2] = Blood tests on plasma after 21 days of SFN-Cys diet; assay type: in vivo; conditions: mice, diet 7.5 mg/kg food, mean±SEM
Protocol: To strengthen this conclusion, extensive measurements were conducted on plasma levels of key parameters of kidney and liver toxicities in addition to the lipid and carbohydrate profiles.
For dietary treatment with SFN-Cys, the SFN-Cys was mixed with a powdered diet (7.5 mg of SFN-Cys per kg of food). The estimated dose delivered by this diet was about 1.0-1.5 mg/kg. The diet was stored at 4° C. and the feeders were refilled daily. Control animals received diet alone. Body weights were recorded twice a week and at the termination of the study, blood was drawn in EDTA-containing tubes, plasma was collected by centrifugation and stored at −80° C. until analysis.
Blood tests were performed on hemolysis free plasma samples obtained from animals receiving 21 days of a normal diet or a diet containing 7.5 mg/kg food of SFN-Cys using commercially available kits.

[3] = test system: fibroblasts (CF, DF); assay: Proliferation of fibroblasts from control and diabetic wounds; assay type: cell-based, rat; conditions: 1.5 μM
Protocol: Successful wound healing necessitates a series of tightly coordinated and overlapping processes including inflammation, new tissue formation and remodeling. Fibroblasts, in response to growth factors-released mostly by macrophages, migrate to the site of injury, where they proliferate and lay down the extracellular matrix (ECM). Consequently, this facilitates cell migration and tissue reconstruction. The effect of a therapeutic concentration of SFN-Cys (1.5 μM) was investigated on the proliferation of fibroblasts isolated from the granulation tissue of control and diabetic wounds. Similarly, the effect of SFN-Cys on cell migration in the in vitro wound closure assay was also considered. […] Accordingly, in vivo wound closure properties of SFN-Cys were examined using an excisional wound healing rat model. SFN-Cys containing Pluronic acid was topically applied to the wound at a dose of 1.5 μmol concentration and the wound closure area was digitally photographed and quantified. Digital photographs were obtained on day-0 through day-7 of post wounding. […] In this context, the wound healing time-course was faster in SFN-Cys containing Pluronic acid than the Pluronic acid alone (FIG. 3C). […] VEGF is a well-established enhancer of the proliferative phase of healing. […]

[4] = test system: transforming growth factor beta (TGF-β); assay: TGF-β expression (cardiac fibrosis); assay type: in vivo
Text: Therapeutic rational was considered for SFN-Cys effectiveness in the following pathological conditions: Sarcopenia-SFN-Cys increased muscle weight in diabetic mice, see FIGS. 4A and 4B; Cardiac fibrosis-SFN-Cys inhibits transforming growth factor beta (TGF-β) expression, see FIG. 4C; Erectile dysfunction-SFN-Cys increased endothelial nitric oxide activity and expression in corpus cavernosum.

[5] = test system: bone marrow-derived macrophages; assay: LPS-induced cytokines in bone marrow-derived macrophages; assay type: cell-based, mouse
Protocol: as §2, with “Additional tests were conducted to determine whether SFN-Cys also suppresses TNF-α and IL-6 expression at the mRNA level. […] Thioglycollate-elicited” for “Thioglycollate-elicited”

[6] = test system: Nrf2; assay: Nrf2 activity (NQO1-ARE luciferase) in fibroblasts; assay type: cell-based, rat
Protocol: To better characterize how SFN-Cys impacts cellular antioxidant levels, the ability of SFN-Cys to regulate the transcription factor nuclear factor erythroid 2-related factor 2 (Nrf2) was assessed, which is a master regulator of the antioxidative stress response that induces the expression of antioxidant proteins such as heme oxygenase (HO) and NAD(P)H dehydrogenase (quinine; NQO1) and key enzymes in the glutathione system. In this context, Nrf2 transcriptional activity was first measured using a vector encoding luciferase driven by the NQO1 promoter. […] Administration of SNF-Cyst at the above indicated concentration (1.5 μM, the lowest effective concentration) ameliorated diabetes-induced suppression of the Nrf2 activity and Nrf2-target genes including HO and NQO1 (FIG. 2A-D).
CF and DF were transfected with the antioxidative stress response element ARE-luciferase and pRenilla vectors using lipofectamine 2000 (Invitogen, USA). In this context, cells were plated and transfected in 12-well plates. Following treatment with SFN-Cys, cells were lysed and firefly and Renilla luciferase activity was determined using Dual luciferase assay (Promega, USA).

[7] = test system: neuronal, vascular, muscle, cardiac and stem cells; assay: Protection of cells from oxidative stress and inflammation-induced apoptotic cell death; assay type: cell-based; conditions: at certain concentrations
Text: Thus, SNF-Cys may have a therapeutic benefit in the following conditions in addition to impaired wound healing: Sarcopenia, Fat grafting, Psoriasis, Nerve regeneration and diabetic neuropathy, Erectile dysfunction, and Cardiac fibrosis.

[8] = test system: IL-6; assay: Real-time PCR, LPS-induced IL-6 mRNA in peritoneal macrophages; assay type: cell-based, mouse; conditions: LPS 100 ng/mL, 1.5 umol/L, RT-PCR
Protocol: as §1, §2, §3

C[S+]([O-])CCCCNC(=S)SCC(N)C(=O)O (stereo not drawn) [SFN-Cys, Sulforaphane-Cysteine]
LPS-induced TNF-α mRNA up-regulation [1]: significantly inhibited | Plasma Alanine aminotransferase [2]: 44.5 ± 17 IU/L | Plasma Alkaline phosphatase [2]: 27 ± 15 IU/L | Plasma Aspartate aminotransferase [2]: 172 ± 25 IU/L | Plasma Creatinine [2]: 8.87 ± 0.91 µmol/L | Plasma Free fatty acid [2]: 0.41 ± 0.14 mmol/L | Plasma Glucose [2]: 5.87 ± 0.90 mmol/L | Plasma Ketone bodies [2]: 0.079 ± 0.01 mmol/L | Plasma Total bilirubin [2]: 4.23 ± 0.48 µmol/L | Plasma Total cholesterol [2]: 2.15 ± 0.42 mmol/L | Plasma Triglyceride [2]: 1.15 ± 0.25 mmol/L | cell proliferation [3]: enhanced cell proliferation in both CF and DF | TGF-β expression [4]: inhibits | suppression of LPS-induced TNF-α and IL-6 in bone marrow-derived macrophages [5]: analogous results were also seen | Nrf2 transcriptional activity (NQO1 promoter luciferase) ([6]; DF and CF-GP, 1.5 μM): ameliorated | lowest effective concentration ([6]; fibroblasts, Nrf2 activity and Nrf2-target genes): 1.5 µM | protection from oxidative state and low-grade inflammation-induced apoptotic cell death [7]: protects | LPS-induced IL-6 mRNA up-regulation [8]: significantly inhibited
